Assay results reported in patent US10342818B2, “Dual-action compounds targeting adenosine A2A receptor and adenosine transporter for prevention and treatment of neurodegenerative diseases” (Academia Sinica, priority 2009, dated 2019).
“Also recorded” adds a separate entry of the source. Where two headings read alike, the source gives them in different places.

What was measured:
[1] = target: T1, equilibrative nucleoside transporter 1 (ENT1) (Cavia porcellus, UniProt H0V4R7); experiment: Radioligand binding assay for adenosine transporters (3H-NBTI, cerebral cortex membranes); set-up: species or system guinea pig; details: for Binding with / activity against ENT1, result in words: radioligand binding; for Ki: guinea pig equilibrium transporter 1, cerebral cortex membranes, 3H-NBTI 0.5 nM
T1 construct: Membrane fractions collected from the cerebral cortex of Duncan Hartley derived guinea pigs; tissue MDS Pharma Services Taiwan (assay provider); host or cells: guinea pig cerebral cortex membranes
T1 sequence (H0V4R7 1-461): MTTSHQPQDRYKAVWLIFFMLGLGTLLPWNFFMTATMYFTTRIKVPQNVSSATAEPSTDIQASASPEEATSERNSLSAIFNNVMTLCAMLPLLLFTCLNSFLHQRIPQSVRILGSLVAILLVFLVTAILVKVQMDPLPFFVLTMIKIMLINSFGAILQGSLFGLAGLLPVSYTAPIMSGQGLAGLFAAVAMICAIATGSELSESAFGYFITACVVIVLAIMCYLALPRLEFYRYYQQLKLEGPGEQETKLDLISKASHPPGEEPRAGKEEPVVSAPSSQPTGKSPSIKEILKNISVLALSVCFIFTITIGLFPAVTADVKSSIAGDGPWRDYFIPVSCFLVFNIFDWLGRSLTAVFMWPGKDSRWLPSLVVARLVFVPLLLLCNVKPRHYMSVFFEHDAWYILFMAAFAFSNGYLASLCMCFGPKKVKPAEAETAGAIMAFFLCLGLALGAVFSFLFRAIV
Source text: The pharmacological properties of the prepared adenosine analogues were characterized by MDS Pharma Services using radioligand binding assays. […] Except for 11 and 15, the adenosine derivatives having modification at the C-5′ position appeared to deteriorate their binding with A2AR, though they still maintained high affinity with ENT1.

human A2A receptor = human A2A receptor (Homo sapiens, UniProt P29274); experiment: Radioligand binding assay of the A2A receptor (3H-CGS21680, MDS Pharma Services); details: for Binding with A2AR, result in words: radioligand binding
Description: Radioligand binding assays were performed by MDS Pharma Services Taiwan (Taipei, Taiwan) using standard binding protocols. For the binding assay of the A2A receptor,^46 membrane proteins collected from HEK293 cells overexpressing the human A2A receptor were incubated in reaction buffer [50 mM Tris-HCl (pH 7.4), 10 mM MgCl2, 1 mM EDTA, and 2 U/mL adenosine deaminase] containing ^3H-CGS21680 (50 nM) for 90 min at 25° C. Nonspecific binding was assessed in the presence of 50 μM adenosine-5′-N-ethylcarboxamide (NECA).

PC12 cells [2] = details: compound isolated from Gastrodia elata, earlier report; cited from earlier work
PC12 cells [3] = experiment: MTT metabolism assay, rescue of serum-deprived PC12 cells from apoptosis; format: cell-based; details: 0.01 μM, 24 h
Source text: Cell viability was monitored by the MTT assay, and is expressed as a percentage of the MTT activity measured in the serum-containing group. […] Collectively, the dual function of these compounds in activation of adenosine receptor and in inhibition of adenosine transporter might synergistically increase the effective concentration of adenosine, especially when these two proteins are in proximity.
PC12 cells purchased from ATCC (Manassas, Va., USA) were maintained in Dulbecco's modified Eagle's medium (DMEM) supplemented with 10% horse serum and 5% fetal bovine serum and incubated in a CO2 incubator (5%) at 37° C. Survival was assessed by the 3-(4,5-dimethylthiazol-2-yl)-2,5-diphenyltetrazolium bromide (MTT) metabolism assay as described elsewhere.^49,50 In brief, cells grown on 150-mm plates were washed three times with PBS and resuspended in DMEM. Suspended cells (1×10^4 cells) were plated on 96-well plates and treated with or without the indicated reagent. After incubation for 24 h, MTT (0.5 mg/mL) was added to the medium and incubated for 3 h. After discarding the medium, DMSO (100 μL) was then applied to the well to dissolve the formazan crystals derived from the mitochondrial cleavage of the tetrazolium ring by live cells. The absorbance at 570/630 nm in each well was measured on a micro-enzyme-linked immunosorbent assay (ELISA) reader.

Chain of human A2A receptor (P29274 whole entry): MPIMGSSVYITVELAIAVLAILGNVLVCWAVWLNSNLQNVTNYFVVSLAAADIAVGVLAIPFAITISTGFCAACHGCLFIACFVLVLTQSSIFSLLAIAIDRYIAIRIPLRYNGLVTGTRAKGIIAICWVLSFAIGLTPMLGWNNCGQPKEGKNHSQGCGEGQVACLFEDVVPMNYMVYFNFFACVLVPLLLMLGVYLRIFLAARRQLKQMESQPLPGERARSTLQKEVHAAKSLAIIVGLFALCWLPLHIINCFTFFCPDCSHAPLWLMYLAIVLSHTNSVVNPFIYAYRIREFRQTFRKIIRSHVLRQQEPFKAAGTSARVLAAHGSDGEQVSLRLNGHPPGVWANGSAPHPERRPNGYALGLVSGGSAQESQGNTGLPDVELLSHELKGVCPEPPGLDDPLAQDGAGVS

| Ki [1] [nM] | Ki (human A2A receptor) [nM] | Structure (SMILES) | other results |
| --- | --- | --- | --- |
| 318 | 30100 | COc1ccc(CNc2ncnc3c2ncn3[C@@H]2O[C@H](CO)[C@@H](O)[C@H]2O)cc1 [Compound 3, N^6-(4-methoxybenzyl)adenosine] | – |
| 2980 | > 100000 | COc1ccc(CNc2ncnc3c2ncn3[C@@H]2O[C@H](CCl)[C@@H](O)[C@H]2O)cc1 [Compound 7] | – |
| 1430 | > 100000 | COc1ccc(CNc2ncnc3c2ncn3[C@@H]2O[C@H](CNC(C)=O)[C@@H](O)[C@H]2O)cc1 [Compound 9, 5′-Acetamido-5′-deoxy-N^6-(4-methoxybenzyl)adenosine] | melting point: 121.1 to 121.6 °C |
| 960 | 41800 | COc1ccc(CNc2ncnc3c2ncn3[C@@H]2O[C@H](Cn3cc(C)nn3)[C@@H](O)[C@H]2O)cc1 [Compound 11, 5′-Deoxy-5′-(4-methyl-1,2,3-triazol-1-yl)-N^6-(4-methoxybenzyl)adenosine] | melting point: 183 to 183.2 °C |
| 511 | > 100000 | CCCCc1cn(C[C@H]2O[C@@H](n3cnc4c(NCc5ccc(OC)cc5)ncnc43)[C@H](O)[C@@H]2O)nn1 [Compound 12] | – |
| 52 | > 100000 | CCCCCCc1cn(C[C@H]2O[C@@H](n3cnc4c(NCc5ccc(OC)cc5)ncnc43)[C@H](O)[C@@H]2O)nn1 [Compound 13] | – |
| 116 | > 100000 | COc1ccc(CNc2ncnc3c2ncn3[C@@H]2O[C@H](Cn3cc(Cc4ccccc4)nn3)[C@@H](O)[C@H]2O)cc1 [Compound 14] | – |

Continued, molecule first:

| Structure (SMILES) | Ki [1] [nM] | Ki (human A2A receptor) [nM] | other results |
| --- | --- | --- | --- |
| CCNC(=O)C1OC(n2cnc3c(N)nc(NCCc4ccc(CCC(=O)O)cc4)nc32)C(O)C1O (centres unmarked) [CGS, 6-amino-9-(5-ethylcarbamoyl-3,4-dihydroxy-oxolan-2-yl)-2-{2-[4-(2-carboxyethyl)phenyl]ethylamino}purine, reference compound] | – | – | Binding with / activity against ENT1, result in words [1]: lack the activity against ENT1; also recorded: no inhibitory activity toward hENT1 |
| OC[C@H]1O[C@@H](n2cnc3c(NCc4ccc(O)cc4)ncnc32)[C@H](O)[C@@H]1O [Compound 1, N^6-(4-Hydroxybenzyl)adenosine] | 538 | – | Binding with A2AR, result in words (human A2A receptor): low micromolar; Ki (human A2A receptor; read-out: Ki A2A-R, human adenosine A2A receptor, HEK293 membranes, 3H-CGS21680 50 nM): 2620 nM; Prevention of apoptosis of serum-deprived PC12 cells (previously reported) (PC12 cells [2]): prevented apoptosis of serum-deprived PC12 cells; Binding with / activity against ENT1, result in words [1]: sub-micromolar range; Rescue of PC12 cells from apoptosis evoked by serum withdrawal (cell viability, MTT) (PC12 cells [3]): rescued PC12 cells from the apoptosis evoked by serum withdrawal |
| CC1(C)O[C@@H]2[C@H](O1)[C@@H](CO)O[C@H]2n1cnc2c(NCc3ccc(O)cc3)ncnc21 [Compound 1-acetonide, 1-acetonide] | > 100000 | > 100000 | – |
| OC[C@H]1O[C@@H](n2cnc3c(NCCc4c[nH]c5ccccc45)ncnc32)[C@H](O)[C@@H]1O [Compound 6, N^6-(3-Indolylethyl)adenosine] | – | – | Binding with A2AR, result in words (human A2A receptor): low micromolar; Binding affinity to A2AR of compound 6 relative to compound 11 (human A2A receptor; ratio of Ki values): 10 fold; Binding with / activity against ENT1, result in words [1]: sub-micromolar range; Rescue of PC12 cells from apoptosis evoked by serum withdrawal (cell viability, MTT) (PC12 cells [3]): rescued PC12 cells from the apoptosis evoked by serum withdrawal equally as well as 1 |
| COc1ccc(CNc2ncnc3c2ncn3[C@@H]2O[C@H](CN=[N+]=[N-])[C@H](O)C2O)cc1 (some centres unmarked) [Compound 8] | 581 | – | – |
| COc1ccc(CNc2ncnc3c2ncn3[C@@H]2O[C@H](CNS(=O)(=O)c3ccc(C)cc3)[C@@H](O)[C@H]2O)cc1 [Compound 10] | 200 | > 100000 | – |
| CCNC(=O)C1OC(n2cnc3c(NCc4ccc(O)cc4)ncnc32)C(O)C1O (centres unmarked) [Compound 15, 3,4-Dihydroxy-5-[6-(4-hydroxybenzylamino)-purin-9-yl]-tetrahydrofuran-2-carboxylic Acid Ethylamide] | > 10000 | 20300 | melting point: 179.7 to 180.5 °C |
| COc1ccc(CNc2ncnc3c2ncn3C2OC(c3nnn[nH]3)C(O)C2O)cc1 (centres unmarked) [Compound 16, 2-[6-(4-Methoxybenzylamino)-purin-9-yl]-5-(1H-tetrazol-5-yl)-tetrahydrofuran-3,4-diol] | 1170 | > 100000 | melting point: 210 to 210.6 °C |
| O=[N+]([O-])c1ccc(CSc2ncnc3c2ncn3[C@@H]2O[C@H](CO)[C@@H](O)[C@H]2O)cc1 [NBTI, S-(4-nitrobenzyl)-6-thioinosine, reference compound] | 0.29 | > 10000 | Binding with A2AR, result in words (human A2A receptor): no binding ability with A2AR |
